The values below are quoted from earlier work in patent publication US20210283219A1, “INHIBITION OF ALTERNATIVE COMPLEMENT PATHWAY FOR TREATMENT OF RETINAL ISCHEMIC INJURY AND GLAUCOMA” (Massachusetts Eye and Ear Infirmary, priority 2017, published 2021).

This data set has as its target complement factor B (Homo sapiens, UniProt P00751).

complement factor B, sequence (P00751 26-764, species assumed): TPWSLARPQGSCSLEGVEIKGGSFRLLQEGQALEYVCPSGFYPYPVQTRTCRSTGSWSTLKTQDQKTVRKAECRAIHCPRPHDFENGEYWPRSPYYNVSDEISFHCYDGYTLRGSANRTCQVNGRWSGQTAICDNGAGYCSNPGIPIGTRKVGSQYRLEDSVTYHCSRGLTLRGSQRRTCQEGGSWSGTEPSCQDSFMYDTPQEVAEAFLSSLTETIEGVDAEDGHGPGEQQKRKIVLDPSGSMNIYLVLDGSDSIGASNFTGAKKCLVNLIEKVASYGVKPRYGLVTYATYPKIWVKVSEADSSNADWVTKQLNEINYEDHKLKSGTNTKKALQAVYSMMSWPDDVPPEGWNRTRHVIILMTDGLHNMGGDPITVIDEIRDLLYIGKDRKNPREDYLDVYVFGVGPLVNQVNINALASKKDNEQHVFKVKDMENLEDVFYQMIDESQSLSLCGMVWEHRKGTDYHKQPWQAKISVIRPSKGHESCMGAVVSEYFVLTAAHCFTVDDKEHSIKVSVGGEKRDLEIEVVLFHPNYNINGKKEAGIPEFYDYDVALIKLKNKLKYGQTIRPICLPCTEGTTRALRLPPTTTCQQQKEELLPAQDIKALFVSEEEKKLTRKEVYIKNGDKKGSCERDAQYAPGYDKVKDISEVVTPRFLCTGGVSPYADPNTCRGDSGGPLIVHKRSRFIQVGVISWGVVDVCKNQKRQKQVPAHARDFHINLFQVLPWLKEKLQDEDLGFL

For the substance “(2S)-2-[[(2S)-2 [[(2S)-2-[[(2S)-[[(2S)-2-[[(2S)-2-acetamido-5-(diaminomethylideneamino)pentanoyl]amino]-4-methylpentanoyl]amino]-4,4-dimethylpentanoyl]amino]-4-methylpentanoyl]amino]propanoyl]amino]-5-(diaminomethylideneamino)pentanoic acid [Compound 51]”, the “inhibition of complement factor B” value is listed as “potently inhibits”.
